This is an account of results in ChEMBL document CHEMBL3425432, “Azide-alkyne cycloaddition-mediated cyclization of phosphonopeptides and their evaluation as PTP1B binders and enrichment tools” (Bioorg Med Chem, 2015).

Each structure is given as a SMILES string. Activity calls are given as the source filed them. The calls are words filed in the database; no cut-off is given here. *1 amine or outer side, *2 acyl side, *3 side chain or, on linkers, in order; H or OH if unused. Where a SMILES comes first, the peptide text is derived from it. [ ]: non-standard residue; d: D form. The star is where a group is joined. F2Pmp = N[C@@H](Cc1ccc(C(F)(F)P(=O)(O)O)cc1)C(=O)O; Biotin = O=C1N[C@H]2[C@H](CS[C@H]2CCCCC(=O)*)N1; X1 = [N-]=[N+]=N[C@@H](CCCCN[*:1])C(=O)[*:2]; pY = N[C@@H](Cc1ccc(OP(=O)(O)O)cc1)C(=O)O; Hexanoyl(6-N3) = [N-]=[N+]=NCCCCCC(=O)*; Pra = C#CC[C@H](N)C(=O)O

Data set [1] deals with T1, Tyrosine-protein phosphatase non-receptor type 2 (Homo sapiens) (UniProt P17706).
T1 sequence (whole entry): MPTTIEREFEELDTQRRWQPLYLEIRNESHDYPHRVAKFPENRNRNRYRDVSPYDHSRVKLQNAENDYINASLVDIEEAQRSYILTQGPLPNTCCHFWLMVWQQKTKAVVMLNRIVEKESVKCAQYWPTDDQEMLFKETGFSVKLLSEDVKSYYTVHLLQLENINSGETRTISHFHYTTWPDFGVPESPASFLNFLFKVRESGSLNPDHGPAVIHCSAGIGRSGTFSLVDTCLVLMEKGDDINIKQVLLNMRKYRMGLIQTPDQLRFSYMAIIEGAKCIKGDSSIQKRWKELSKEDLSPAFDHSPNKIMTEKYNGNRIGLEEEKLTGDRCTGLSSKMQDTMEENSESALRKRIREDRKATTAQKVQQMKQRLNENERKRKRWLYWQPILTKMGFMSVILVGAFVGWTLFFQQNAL
Nature of the data set: Binding affinity to TCPTP in human MCF7 cells by SDS-PAGE based pull-down assay. It is filed as cell-based.

The target of data set [2] is Receptor-type tyrosine-protein phosphatase alpha (Homo sapiens) (UniProt P18433). The data set is described as follows: Binding affinity to PTPalpha in human MCF7 cells by SDS-PAGE based pull-down assay. It is filed as cell-based.
In data set [3] the target is Proto-oncogene tyrosine-protein kinase Src (Homo sapiens) (UniProt P12931). Nature of the data set: Binding affinity to c-Src in human MCF7 cells by SDS-PAGE based pull-down assay. It is filed as cell-based.
The target in data set [4] is T2, Tyrosine-protein phosphatase non-receptor type 1 (Homo sapiens) (UniProt P18031).
T2 sequence (whole entry): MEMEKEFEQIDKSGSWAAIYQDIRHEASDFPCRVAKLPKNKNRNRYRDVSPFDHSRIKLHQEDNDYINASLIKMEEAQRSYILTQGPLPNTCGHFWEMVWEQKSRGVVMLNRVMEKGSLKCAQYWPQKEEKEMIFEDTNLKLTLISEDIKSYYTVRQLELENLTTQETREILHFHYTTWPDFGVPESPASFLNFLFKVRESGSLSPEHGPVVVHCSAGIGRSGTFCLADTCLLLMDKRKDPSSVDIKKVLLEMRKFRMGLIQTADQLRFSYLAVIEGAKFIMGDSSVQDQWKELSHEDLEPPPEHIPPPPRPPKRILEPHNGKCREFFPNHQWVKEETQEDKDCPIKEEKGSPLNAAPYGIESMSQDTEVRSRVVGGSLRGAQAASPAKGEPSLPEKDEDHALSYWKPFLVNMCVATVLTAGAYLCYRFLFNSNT
Nature of the data set: Binding affinity to PTP1B in human MCF7 cells by SDS-PAGE based pull-down assay. The format is cell-based.

A short description of data set [5]: Retention time of the compound by HPLC method. It is filed as physicochemical.
Data set [6] concerns the target T2, Tyrosine-protein phosphatase non-receptor type 1 (Homo sapiens). Nature of the data set: Binding affinity to PTP1B in human U2OS cells by SDS-PAGE based pull-down assay. The format is cell-based.

Chain of Proto-oncogene tyrosine-protein kinase Src (Homo sapiens) (P12931 2-536 limits assumed): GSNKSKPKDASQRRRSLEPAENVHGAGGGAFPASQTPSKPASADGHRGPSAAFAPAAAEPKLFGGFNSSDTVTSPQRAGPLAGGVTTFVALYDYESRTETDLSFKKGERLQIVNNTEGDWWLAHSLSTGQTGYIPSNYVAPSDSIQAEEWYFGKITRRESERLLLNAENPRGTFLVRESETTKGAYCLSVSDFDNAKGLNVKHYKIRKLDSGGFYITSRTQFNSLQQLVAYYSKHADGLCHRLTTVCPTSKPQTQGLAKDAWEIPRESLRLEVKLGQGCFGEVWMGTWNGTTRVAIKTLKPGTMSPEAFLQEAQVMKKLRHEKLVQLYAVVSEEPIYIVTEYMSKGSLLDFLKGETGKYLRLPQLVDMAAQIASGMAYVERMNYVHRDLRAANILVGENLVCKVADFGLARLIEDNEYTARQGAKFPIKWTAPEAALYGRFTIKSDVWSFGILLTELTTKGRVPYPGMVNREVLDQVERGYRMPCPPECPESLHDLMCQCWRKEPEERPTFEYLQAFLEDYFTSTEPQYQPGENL
Chain of Receptor-type tyrosine-protein phosphatase alpha (Homo sapiens) (P18433 20-802 limits assumed): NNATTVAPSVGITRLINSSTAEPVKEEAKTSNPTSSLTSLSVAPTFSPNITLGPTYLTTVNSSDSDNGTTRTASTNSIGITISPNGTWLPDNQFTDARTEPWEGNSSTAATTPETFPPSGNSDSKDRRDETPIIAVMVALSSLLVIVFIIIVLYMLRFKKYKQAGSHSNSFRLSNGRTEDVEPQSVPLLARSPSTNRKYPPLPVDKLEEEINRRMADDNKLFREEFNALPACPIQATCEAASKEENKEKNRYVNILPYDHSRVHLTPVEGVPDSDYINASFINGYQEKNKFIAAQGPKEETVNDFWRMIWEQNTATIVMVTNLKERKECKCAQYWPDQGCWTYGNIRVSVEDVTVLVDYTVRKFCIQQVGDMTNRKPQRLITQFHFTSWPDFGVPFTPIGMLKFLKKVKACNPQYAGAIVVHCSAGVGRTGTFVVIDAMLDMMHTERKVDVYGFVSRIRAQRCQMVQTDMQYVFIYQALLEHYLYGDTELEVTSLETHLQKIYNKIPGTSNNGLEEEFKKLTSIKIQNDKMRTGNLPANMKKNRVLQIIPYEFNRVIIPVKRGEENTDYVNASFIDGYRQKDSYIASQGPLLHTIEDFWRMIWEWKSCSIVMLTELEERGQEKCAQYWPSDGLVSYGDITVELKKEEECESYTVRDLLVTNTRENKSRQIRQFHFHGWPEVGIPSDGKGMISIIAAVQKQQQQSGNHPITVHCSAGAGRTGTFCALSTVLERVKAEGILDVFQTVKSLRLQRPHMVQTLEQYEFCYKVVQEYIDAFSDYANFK

Regarding `NC(=O)CC[C@@H]1NC(=O)[C@@H]2CCCN2C(=O)[C@H](CCC(=O)O)NC(=O)[C@@H](CCCCNC(=O)CCCC[C@@H]2SC[C@@H]3NC(=O)N[C@@H]32)n2cc(nn2)C[C@H](C(N)=O)NC(=O)[C@H](CC(N)=O)NC(=O)[C@H](CCC(=O)O)NC(=O)CNC(=O)[C@@H]2CCCN2C(=O)[C@H](CCC(N)=O)NC(=O)[C@H](Cc2ccc(O)cc2)NC1=O`, the outcome in data set [1], in data set [2], in data set [3], in data set [4] and in data set [6] was inactive. For the same molecule, the Retention_time in data set [5] came to 9.5 min.
Consider `NC(=O)CC[C@@H]1NC(=O)[C@@H]2CCCN2C(=O)[C@H](CCC(=O)O)NC(=O)[C@@H](CCCCNC(=O)CCCC[C@@H]2SC[C@@H]3NC(=O)N[C@@H]32)NC(=O)CCCCCn2cc(nn2)C[C@H](C(N)=O)NC(=O)[C@H](CC(N)=O)NC(=O)[C@H](CCC(=O)O)NC(=O)CNC(=O)[C@@H]2CCCN2C(=O)[C@H](CCC(N)=O)NC(=O)[C@H](Cc2ccc(O)cc2)NC1=O`, for which the Retention_time in data set [5] came out at 8.5 min. Also, the result in data set [6] was inactive.
Regarding `NC(=O)CC[C@@H]1NC(=O)[C@@H]2CCCN2C(=O)[C@H](CCC(=O)O)NC(=O)[C@@H](CCCCNC(=O)CCCC[C@@H]2SC[C@@H]3NC(=O)N[C@@H]32)NC(=O)CCCCCn2cc(nn2)C[C@H](C(N)=O)NC(=O)[C@H](CC(N)=O)NC(=O)[C@H](CCC(=O)O)NC(=O)CNC(=O)[C@@H]2CCCN2C(=O)[C@H](CCC(N)=O)NC(=O)[C@H](Cc2ccc(C(F)(F)P(=O)(O)O)cc2)NC1=O`, the result in data set [1], in data set [4] and in data set [6] was Active. The result in data set [2] and in data set [3] was inactive. Further, the Retention_time in data set [5] turned out to be 7.1 min.
In the case of `CC(=O)N[C@@H](CCCCNC(=O)CCCC[C@@H]1SC[C@@H]2NC(=O)N[C@@H]21)C(=O)N[C@@H](CCC(=O)O)C(=O)N1CCC[C@H]1C(=O)N[C@@H](CCC(N)=O)C(=O)N[C@@H](Cc1ccc(OP(=O)(O)O)cc1)C(=O)N[C@@H](CCC(N)=O)C(=O)N1CCC[C@H]1C(=O)NCC(=O)N[C@@H](CCC(=O)O)C(=O)N[C@@H](CC(N)=O)C(=O)N[C@@H](CC(C)C)C(N)=O` (Ac-K(Biotin)EPQ[pY]QPGENL-NH2), the outcome in data set [1], in data set [2], in data set [3] and in data set [4] was inactive. In data set [5], this molecule showed a Retention_time of 6.6 min.
Molecule `C#CC[C@H](NC(=O)[C@H](CC(N)=O)NC(=O)[C@H](CCC(=O)O)NC(=O)CNC(=O)[C@@H]1CCCN1C(=O)[C@H](CCC(N)=O)NC(=O)[C@H](Cc1ccc(C(F)(F)P(=O)(O)O)cc1)NC(=O)[C@H](CCC(N)=O)NC(=O)[C@@H]1CCCN1C(=O)[C@H](CCC(=O)O)NC(=O)[C@H](CCCCNC(=O)CCCC[C@@H]1SC[C@@H]2NC(=O)N[C@@H]21)N=[N+]=[N-])C(N)=O` (Biotin-[X1]EPQ[F2Pmp]QPGEN[Pra]-NH2) returned a Retention_time in data set [5] of 8.8 min. The outcome in data set [6] was inactive.
For `C#CC[C@H](NC(=O)[C@H](CC(N)=O)NC(=O)[C@H](CCC(=O)O)NC(=O)CNC(=O)[C@@H]1CCCN1C(=O)[C@H](CCC(N)=O)NC(=O)[C@H](Cc1ccc(C(F)(F)P(=O)(O)O)cc1)NC(=O)[C@H](CCC(N)=O)NC(=O)[C@@H]1CCCN1C(=O)[C@H](CCC(=O)O)NC(=O)[C@H](CCCCNC(=O)CCCC[C@@H]1SC[C@@H]2NC(=O)N[C@@H]21)NC(=O)CCCCCN=[N+]=[N-])C(N)=O` ({Hexanoyl(6-N3)}-K(Biotin)EPQ[F2Pmp]QPGEN[Pra]-NH2) the same measures were 9.5 min and “inactive”.
The like results for `NC(=O)CC[C@@H]1NC(=O)[C@@H]2CCCN2C(=O)[C@H](CCC(=O)O)NC(=O)[C@@H](CCCCNC(=O)CCCC[C@@H]2SC[C@@H]3NC(=O)N[C@@H]32)n2cc(nn2)C[C@H](C(N)=O)NC(=O)[C@H](CC(N)=O)NC(=O)[C@H](CCC(=O)O)NC(=O)CNC(=O)[C@@H]2CCCN2C(=O)[C@H](CCC(N)=O)NC(=O)[C@H](Cc2ccc(C(F)(F)P(=O)(O)O)cc2)NC1=O` were, in that order, 7.1 min and “Active”.
`CC(C)C[C@H](NC(=O)[C@H](CC(N)=O)NC(=O)[C@H](CCC(=O)O)NC(=O)CNC(=O)[C@@H]1CCCN1C(=O)[C@H](CCC(N)=O)NC(=O)[C@H](Cc1ccc(C(F)(F)P(=O)(O)O)cc1)NC(=O)[C@H](CCC(N)=O)NC(=O)[C@@H]1CCCN1C(=O)[C@H](CCC(=O)O)NC(=O)CCCC[C@@H]1SC[C@@H]2NC(=O)N[C@@H]21)C(N)=O` (Biotin-EPQ[F2Pmp]QPGENL-NH2) returned a Retention_time in data set [5] of 8 min. For the same molecule, the result in data set [6] was inactive.
In data set [5], `CC(=O)N[C@@H](CCCCNC(=O)CCCC[C@@H]1SC[C@@H]2NC(=O)N[C@@H]21)C(=O)N[C@@H](CCC(=O)O)C(=O)N1CCC[C@H]1C(=O)N[C@@H](CCC(N)=O)C(=O)N[C@@H](Cc1ccc(C(F)(F)P(=O)(O)O)cc1)C(=O)N[C@@H](CCC(N)=O)C(=O)N1CCC[C@H]1C(=O)NCC(=O)N[C@@H](CCC(=O)O)C(=O)N[C@@H](CC(N)=O)C(=O)N[C@@H](CC(C)C)C(N)=O` (Ac-K(Biotin)EPQ[F2Pmp]QPGENL-NH2) showed a Retention_time of 9.1 min. Moreover, the outcome in data set [6] was Active.
